Test results as given in PubChem BioAssay (NCI).
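Dose response: 5 concentrations. Exposure: 48 h. Format: 96-well plates. Endpoint: linear interpolation; highest concentration if not reached. Abbreviation: GI50, concentration required for 50% inhibition of growth. TGI denotes the concentration required for complete inhibition of growth.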

Experiments:
Assay in all cases: NCI-60 cell line screen, 48 h
CCRF-CEM leukemia = test system: CCRF-CEM leukemia
HS 578T breast = test system: HS 578T breast
MCF7 breast = test system: MCF7 breast
NCI-H226 lung = test system: NCI-H226 lung
OVCAR-4 ovarian = test system: OVCAR-4 ovarian
SK-MEL-2 melanoma = test system: SK-MEL-2 melanoma
TK-10 renal = test system: TK-10 renal
U251 CNS = test system: U251 CNS

Structure (SMILES) | TGI (CCRF-CEM leukemia) [µM] | TGI (HS 578T breast) [µM] | TGI (MCF7 breast) [µM] | TGI (NCI-H226 lung) [µM] | TGI (OVCAR-4 ovarian) [µM] | TGI (SK-MEL-2 melanoma) [µM] | TGI (TK-10 renal) [µM] | TGI (U251 CNS) [µM] | GI50 (CCRF-CEM leukemia) [µM] | GI50 (HS 578T breast) [µM] | GI50 (MCF7 breast) [µM] | GI50 (NCI-H226 lung) [µM] | GI50 (OVCAR-4 ovarian) [µM] | GI50 (SK-MEL-2 melanoma) [µM] | GI50 (TK-10 renal) [µM] | GI50 (U251 CNS) [µM]
NC1(c2cc3ccccc3s2)CCCC1 | 42.3 | > 100 | > 100 | > 100 | > 100 | > 100 | 85.7 | > 100 | – | – | – | – | – | – | – | –
O=C(/C=C/c1ccc2c(c1)OCO2)c1ccc(O)cc1 | 35.3 | 34.1 | 23.1 | 37.9 | 38.8 | 32.7 | 33.1 | 26.9 | – | – | – | – | – | – | – | –
S=C(N/N=C(/c1ccccc1)c1ccccn1)N(Cc1ccccn1)Cc1ccccn1 | > 100 | > 29.8 | 5.02 | 0.433 | 1.73 | 3.04 | 1.58 | – | – | – | – | – | – | – | – | –
O=c1[nH]c(=S)[nH]c2c1C(c1ccc([N+](=O)[O-])cc1)c1c([nH]c(=S)[nH]c1=O)O2 | > 100 | > 100 | > 100 | > 100 | > 100 | > 100 | > 100 | > 100 | – | – | – | – | – | – | – | –
Nc1nccc(-c2c[nH]c3cc(Br)ccc23)n1 | > 100 | 75.7 | > 100 | > 100 | > 100 | 47.2 | 59 | > 100 | – | – | – | – | – | – | – | –
Cc1cc(Nc2ccc(S(=O)(=O)O)c3cc(S(=O)(=O)O)cc(S(=O)(=O)O)c23)c2ccccc2n1 | – | > 100 | > 100 | > 100 | > 100 | > 100 | > 100 | > 100 | – | – | – | – | – | – | – | –
Cc1ccccc1OC(C)C(=O)NN1C(=O)CSC1c1ccccc1 (stereo unspecified) | – | > 100 | > 100 | > 100 | > 100 | > 100 | > 100 | > 100 | – | – | – | – | – | – | – | –
CC(=O)Nc1nc(NC(C)=O)c2[nH]c(CO)nc2n1 | > 100 | > 100 | > 100 | > 100 | > 100 | > 100 | > 100 | > 100 | – | – | – | – | – | – | – | –
c1ccc2c(c1)Cn1c-2nc2ccccc21 | > 100 | > 100 | > 100 | > 100 | > 100 | > 100 | > 100 | > 100 | – | – | – | – | – | – | – | –
Nc1ncnc2c1[nH]c(=O)n2-c1ccccc1 | – | > 100 | > 100 | – | > 100 | > 100 | > 100 | – | – | – | – | – | – | – | – | –
COc1ccc(-c2[nH]c3c4c(nc5c(c24)C(=O)CC(C)(C)C5)CC(C)(C)C3)cc1 | > 100 | > 100 | > 100 | > 100 | > 100 | > 100 | > 100 | > 100 | – | – | – | – | – | – | – | –
O=C(OCc1ccccc1)N1CCNCCN(C(=O)OCc2ccccc2)CCNCC1 | > 100 | 54.5 | 38.8 | > 100 | > 100 | 42.3 | > 100 | 61 | – | – | – | – | – | – | – | –
COc1ccc(CN2C(=O)/C(=C\c3cc(OC)c(OC)c(OC)c3)c3ccccc32)cc1 | > 100 | 55.5 | 15.9 | 9.23 | > 100 | 4.11 | 4.33 | 2.98 | 1.94 | 3.78 | 2.86 | 2.96 | 3.25 | 1.87 | 1.14 | 1.56
CC(=O)Nn1c(=S)[nH]c2ccccc21 | > 100 | > 100 | > 100 | > 100 | > 100 | > 100 | > 100 | > 100 | – | – | – | – | – | – | – | –
O=C(C1OC1c1ccc(Br)cc1O)C12CC3CC(CC(C3)C1)C2 (stereo unspecified) | > 100 | 47.8 | > 100 | > 100 | 81.4 | – | > 100 | 30.8 | – | – | – | – | – | – | – | –
CN(C)CCNS(=O)(=O)c1ccc(N)cc1 | > 100 | > 100 | > 100 | > 100 | > 100 | 31.9 | > 100 | > 100 | – | – | – | – | – | – | – | –
NC(=O)C(=Cn1c(=S)[nH]c2ccc([N+](=O)[O-])cc21)C(N)=O | – | – | – | > 100 | > 100 | > 100 | > 100 | > 100 | – | – | – | – | – | – | – | –
COC(=O)C1CC(C=[N+](C)C)=C(SC)N1C(=O)OCc1ccccc1 (stereo unspecified) | – | > 100 | > 100 | – | > 100 | > 100 | > 100 | > 100 | – | – | – | – | – | – | – | –
Cc1ccc(-c2csc(=Nc3ccccc3)n2NC(=O)c2ccncc2)cc1 | > 67.5 | > 100 | > 100 | > 75.2 | > 100 | 96.1 | > 100 | > 31.6 | – | – | – | – | – | – | – | –
C(=C(c1ccc(OC2CCCCO2)cc1)c1ccc(OC2CCCCO2)cc1)c1ccccc1 (stereo unspecified) | 6.66 | 4.44 | 1.43 | 3.17 | 1.75 | 2.77 | 2.35 | 2.34 | – | – | – | – | – | – | – | –
O=C(c1ccccn1)C1(N2CCCCC2)CCCCC1 | > 100 | 39.5 | > 100 | > 100 | > 100 | > 100 | > 100 | > 100 | – | – | – | – | – | – | – | –
C#CCn1c(=O)c2ccccc2n(CC#C)c1=O | > 10 | > 10 | > 10 | > 10 | > 10 | > 10 | > 10 | > 10 | – | – | – | – | – | – | – | –
CC(=O)N(C(=O)CC(=O)N1N=C(c2ccccc2)C(N=Nc2ccccc2[N+](=O)[O-])C1=O)c1ccc(Cl)cc1 (stereo unspecified) | > 10 | > 10 | > 10 | > 10 | > 10 | > 10 | > 10 | > 10 | – | – | – | – | – | – | – | –
C=CC1(CC/C(=C\[N+](=O)[O-])c2ccc(OC)c(OC)c2)OCC(C)(C)CO1 | > 100 | 79.4 | > 100 | 56 | 31.5 | 37.7 | 34.6 | > 100 | – | – | – | – | – | – | – | –
CC(C)=CCC[C@@H](C)c1c(O)c(O)c(C)c2nccnc12 | > 36.5 | > 80.2 | > 100 | 37.1 | > 100 | 58 | > 100 | > 100 | – | – | – | – | – | – | – | –
